Results from BindingDB's records for patent US11897867 (Bayer Aktiengesellschaft, 2024).

Columns and labels:
[1] = molecular target: cGMP-inhibited 3',5'-cyclic phosphodiesterase 3A (Homo sapiens, UniProt Q14432); test: PDE3A Enzyme Inhibition
Description: (§1) The commercially available 3H-cAMP Scintillation Proximity Assay (SPA, Perkin Elmer) system was used for enzyme inhibition studies. For the determination of the in vitro effect of test substances on the PDE3A reactions 2 μl of the respective test compound solution in DMSO (serial dilutions) were is placed in wells of microtiter plates (Isoplate-96/200W; Perkin Elmer). 50 μl of a dilution of PDE3A cell extract from Sf9 cells overexpressing human full length PDE3A (SB Drug Discovery, UK) in buffer A (50 mM Tris/HCl pH 7.5, 8.3 mM MgCl2, 1.7 mM EDTA, 0.2% BSA) was added. The dilution of the PDE3A cell extract was chosen such that the reaction kinetics was linear and less than 70% of the substrate was consumed (typical dilution 1:5000). The reaction was started by addition of 50 μl (0.025 μCi) of 1:2000 in buffer A w/o BSA diluted substrate [8-3H] adenosine 3′,5′-cyclic phosphate (1 μCi/μl; Perkin Elmer). After incubation at room temperature for 60 min, the reaction was stopped by addition of 25 μl of a suspension containing 18 mg/ml yttrium scintillation proximity beads (Perkin Elmer) in water. The microtiter plates were sealed and measured in a Microbeta scintillation counter (PerkinElmer Wallac). IC50 values were determined from sigmoidal curves by plotting percentage PDE3A activity vs log compound concentration.

[2] = molecular target: cGMP-inhibited 3',5'-cyclic phosphodiesterase 3B (Homo sapiens, UniProt Q13370); test: PDE3B Enzyme Inhibition
Description: as §1, with “PDE3B” for “PDE3A”, “were” for “were is”, “1:6000).” for “1:5000).”

Sequence of cGMP-inhibited 3',5'-cyclic phosphodiesterase 3A (Q14432 whole entry): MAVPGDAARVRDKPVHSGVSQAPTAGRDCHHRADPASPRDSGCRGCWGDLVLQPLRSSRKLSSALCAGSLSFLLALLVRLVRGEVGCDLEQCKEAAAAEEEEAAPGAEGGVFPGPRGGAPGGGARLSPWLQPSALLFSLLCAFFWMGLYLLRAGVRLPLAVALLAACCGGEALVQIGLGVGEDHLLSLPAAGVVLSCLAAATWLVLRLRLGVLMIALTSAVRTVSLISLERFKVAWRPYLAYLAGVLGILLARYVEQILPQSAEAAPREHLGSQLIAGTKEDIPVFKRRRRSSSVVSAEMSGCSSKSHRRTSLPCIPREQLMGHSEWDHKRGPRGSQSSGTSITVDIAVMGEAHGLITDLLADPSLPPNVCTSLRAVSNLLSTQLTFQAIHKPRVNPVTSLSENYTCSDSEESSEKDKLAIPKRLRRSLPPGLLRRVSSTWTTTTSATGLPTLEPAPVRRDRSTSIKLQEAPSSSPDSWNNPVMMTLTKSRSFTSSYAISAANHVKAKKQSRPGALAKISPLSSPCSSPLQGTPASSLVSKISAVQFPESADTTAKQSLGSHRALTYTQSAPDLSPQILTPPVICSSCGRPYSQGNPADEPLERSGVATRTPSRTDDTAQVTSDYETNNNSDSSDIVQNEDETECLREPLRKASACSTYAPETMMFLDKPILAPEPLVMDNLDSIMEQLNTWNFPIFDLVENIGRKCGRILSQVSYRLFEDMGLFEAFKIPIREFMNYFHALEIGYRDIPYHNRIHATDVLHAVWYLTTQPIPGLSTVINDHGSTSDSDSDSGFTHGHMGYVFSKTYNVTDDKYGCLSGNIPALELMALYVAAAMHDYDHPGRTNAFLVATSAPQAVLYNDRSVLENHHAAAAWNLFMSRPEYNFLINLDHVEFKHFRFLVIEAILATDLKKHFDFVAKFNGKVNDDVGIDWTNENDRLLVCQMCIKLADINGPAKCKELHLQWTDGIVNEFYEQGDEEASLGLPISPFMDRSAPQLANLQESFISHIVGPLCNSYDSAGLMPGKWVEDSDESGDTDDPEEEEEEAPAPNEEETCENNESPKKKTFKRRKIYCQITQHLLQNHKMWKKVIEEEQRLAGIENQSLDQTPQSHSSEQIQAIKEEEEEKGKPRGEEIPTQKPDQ
Sequence of cGMP-inhibited 3',5'-cyclic phosphodiesterase 3B (Q13370 whole entry): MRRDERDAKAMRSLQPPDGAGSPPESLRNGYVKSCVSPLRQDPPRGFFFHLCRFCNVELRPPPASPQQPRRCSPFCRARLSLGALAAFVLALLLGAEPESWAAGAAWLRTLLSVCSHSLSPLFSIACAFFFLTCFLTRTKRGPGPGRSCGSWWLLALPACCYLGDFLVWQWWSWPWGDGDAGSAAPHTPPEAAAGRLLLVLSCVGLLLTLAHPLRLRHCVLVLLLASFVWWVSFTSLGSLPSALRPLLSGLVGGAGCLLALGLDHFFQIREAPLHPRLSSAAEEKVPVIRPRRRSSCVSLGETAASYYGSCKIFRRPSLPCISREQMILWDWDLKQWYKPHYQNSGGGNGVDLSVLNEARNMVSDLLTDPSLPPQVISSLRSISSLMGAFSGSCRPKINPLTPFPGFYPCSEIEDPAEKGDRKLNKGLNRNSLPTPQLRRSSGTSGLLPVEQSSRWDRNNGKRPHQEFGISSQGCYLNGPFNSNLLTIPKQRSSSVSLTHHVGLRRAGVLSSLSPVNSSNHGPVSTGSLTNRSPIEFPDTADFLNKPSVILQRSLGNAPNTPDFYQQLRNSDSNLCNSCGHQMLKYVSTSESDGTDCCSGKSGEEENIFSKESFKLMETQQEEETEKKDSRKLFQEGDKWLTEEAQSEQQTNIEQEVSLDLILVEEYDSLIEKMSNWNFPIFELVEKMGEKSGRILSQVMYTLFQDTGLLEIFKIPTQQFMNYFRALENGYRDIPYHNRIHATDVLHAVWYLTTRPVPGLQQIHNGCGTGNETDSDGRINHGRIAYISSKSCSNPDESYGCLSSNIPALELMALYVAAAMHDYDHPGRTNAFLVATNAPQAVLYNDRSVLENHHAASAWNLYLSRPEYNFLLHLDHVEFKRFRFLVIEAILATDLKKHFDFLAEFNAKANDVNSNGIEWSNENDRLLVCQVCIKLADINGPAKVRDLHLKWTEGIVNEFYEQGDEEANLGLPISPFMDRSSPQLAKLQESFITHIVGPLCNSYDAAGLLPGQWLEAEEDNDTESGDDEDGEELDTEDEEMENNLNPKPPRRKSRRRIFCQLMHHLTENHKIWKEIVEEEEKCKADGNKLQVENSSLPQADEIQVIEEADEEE

Compound | IC50 [1] | IC50 [2]
O=C1CCC(c2ccc(-c3ccccc3C(F)(F)F)c(F)c2)=NN1 [US11897867, Example 61] | 440 nM | 110 nM
O=C1CCC(c2ccc(N3CCOCC3)cc2)=NN1 [US11897867, Example 123] | > 1000 nM | –
